Laboratory results as given in US6800280B2, “Methods for treating HIV-infected patients by the administration of GM-CSF and a protease inhibitor” (Schering AG, priority 1997, dated 2004).
Several values for one entry are separate records, joined by “and”; a condition that tells them apart may be missing. Equal entries are not always repeated. Entries after “also recorded” stand apart in the source; their conditions may differ.

Assays:
HIV = assay: Phase I/II trial: HIV viral load by RNA-PCR (Amplicor) in HIV-infected patients; assay type: in vivo, Human Immunodeficiency Virus (HIV); conditions: GM-CSF group versus placebo group throughout the study, concurrent antiretroviral drugs
Protocol: (§1) A study was conducted to determine the safety and efficacy of human GM-CSF as a therapeutic reagent in HIV-infected patients. Because some in vitro studies had indicated the possibility that GM-CSF might enhance HIV replication in vivo, this study assessed the impact of co-administration of GM-CSF with an antiretroviral agent on HIV replication. HIV viral burden was measured by the RNA-PCR (Amplicor®) method. To assess the effects of this treatment on lymphocyte counts, blood samples were analyzed throughout the study for determination of CD3^+, CD4^+, and CD8^+ T-lymphocyte counts.
This study was a Phase I/II, randomized, double-blind, placebo-controlled, two-center trial involving patients with HIV disease. […] Viral load was determined at baseline (mean of three determinations within fourteen days of study entry), then at two weeks, four weeks, and eight weeks after starting study drugs, and on two separate occasions approximately four weeks after the conclusion of the treatment phase (post-treatment evaluation). […]
At 2, 4 and 8 weeks after the start of study drug and at follow-up (approximately 4 weeks after completion of study drug), patients were examined, their medical histories were updated, and samples were taken for laboratory studies. A central laboratory was utilized for HIV quantification laboratory tests in order to standardize procedures and minimize variability. […]

[1] = system: CD4^+ T-lymphocyte counts; assay: Phase I/II randomized, double-blind, placebo-controlled trial: CD4^+ T-lymphocyte counts in HIV-infected patients; assay type: in vivo, human
Protocol: as §1
This study was a Phase I/II, randomized, double-blind, placebo-controlled, two-center trial involving patients with HIV disease. Patients meeting specific entry criteria were randomized to treatment with GM-CSF or placebo, and these were administered by subcutaneous injection three times per week for eight weeks. Viral load was determined at baseline (mean of three determinations within fourteen days of study entry), then at two weeks, four weeks, and eight weeks after starting study drugs, and on two separate occasions approximately four weeks after the conclusion of the treatment phase (post-treatment evaluation). Clinical and lymphocyte subset evaluations were performed at each of these same time points (i.e., pre-treatment, week 2, week 4, week 8, and 4 weeks post-study). Twenty patients were enrolled in the study, ten per treatment arm. All twenty patients completed the study.
Patients were eligible for inclusion in the study if the following parameters were met: documented HIV infection, including detectable RNA-PCR during baseline evaluation period, age ≧18 years (or legal age of consent), adequate hematologic function, satisfactory hepatic and renal function, adequate clinical performance status, treatment with an antiretroviral regimen that included either ritonavir or indinavir for at least 8 weeks prior to study enrollment and agreement to continue on a stable regimen throughout the study, ability and willingness to provide written informed consent, agreement to practice medically-approved contraception.
Patients were ineligible for inclusion in the study if the following exclusion criteria were met: concurrent pregnancy or breast feeding, concurrent use of other colony stimulating factors or cytokines (other than erythropoietin), life-expectancy <90 days, concurrent radiation or systemic cancer chemotherapy (or within 2 weeks prior to study entry), inability to self-administer or arrange for administration of subcutaneous injections, significant cardiac disease, prior history of adverse reaction to yeast-derived rhu GM-CSF which would prohibit retreatment, active infection (AIDS-related or not) requiring acute systemic therapy within 8 weeks prior to study enrollment, vaccination of any kind within 8 weeks of study enrollment.
Study participants were randomly assigned to receive either active GM-CSF or placebo. Patients were instructed in methods for self-administration of study medication and received preloaded syringes or vials with empty syringes for home use.
The formulation of recombinant human GM-CSF utilized in this clinical trial was LEUKINE® (commercially available from Immunex Corporation, Seattle, Wash.). LEUKINE® and placebo were supplied as lyophilized powders. Both LEUKINE® and placebo were reconstituted by the aseptic injection of Bacteriostatic Water for Injection, USP, containing 0.9% benzyl alcohol. […] These were 40 mg mannitol, USP; 10 mg sucrose, NF; and 1.2 mg TRIS (tromethamine), USP; per vial of study drug. Vials containing placebo were labeled in a fashion identical to vials containing LEUKINE®. Vials of placebo and LEUKINE® were stored refrigerated at 2-8° C. (36-46° F.). […]

[2] = WEEK 2, 9 patients, 250 mcg s.c. three times per week
[3] = WEEK 4, 10 patients, 250 mcg s.c. three times per week
[4] = WEEK 8, 10 patients, 250 mcg s.c. three times per week
[5] = WEEK 12 (post-treatment), 10 patients

Substance: GM-CSF: biosynthetic, yeast-derived, recombinant human GM-CSF; single 127 amino acid glycoprotein with leucine instead of proline at position 23
- Change in viral load (in words) (HIV): no significant increase; also recorded: No significant differences; also recorded: without a concurrent increase
- Effect on CD4^+ T-lymphocyte counts (in words) ([1]; GM-CSF arm versus baseline / placebo, patients concurrently receiving antiretroviral drugs): a trend towards an increase; also recorded: increased at all of the evaluation points; also recorded: significant increase
- Change in CD4^+ T-Lymphocyte Counts Relative to Baseline, Mean (Sd) [1, 2]: 39 (150)
- Change in CD4^+ T-Lymphocyte Counts Relative to Baseline, Median [1, 2]: −9
- Change in CD4^+ T-Lymphocyte Counts Relative to Baseline, Min-Max [1, 2]: −79-389
- Change in CD4^+ T-Lymphocyte Counts Relative to Baseline, Mean (Sd) [1, 3]: 40 (68)
- Change in CD4^+ T-Lymphocyte Counts Relative to Baseline, Median [1, 3]: 34
- Change in CD4^+ T-Lymphocyte Counts Relative to Baseline, Min-Max [1, 3]: −61-135
- Change in CD4^+ T-Lymphocyte Counts Relative to Baseline, Mean (Sd) [1, 4]: 79 (172)
- Change in CD4^+ T-Lymphocyte Counts Relative to Baseline, Median [1, 4]: 4
- Change in CD4^+ T-Lymphocyte Counts Relative to Baseline, Min-Max [1, 4]: −68-424
- Change in CD4^+ T-Lymphocyte Counts Relative to Baseline, Mean (Sd) [1, 5]: 28 (54)
- Change in CD4^+ T-Lymphocyte Counts Relative to Baseline, Median [1, 5]: 30
- Change in CD4^+ T-Lymphocyte Counts Relative to Baseline, Min-Max [1, 5]: −68-112
- Absolute CD4^+ T-Lymphocyte Counts, Baseline CD4 ([1]; individual patients of GM-CSF arm, baseline (pre-treatment), on ritonavir or indinavir regimen): 276 and 383 and 65 and 590 and 152 and 91 and 24 (2×) and 40 and 136
- Absolute CD4^+ T-Lymphocyte Counts, Post-Study CD4 ([1]; individual patients, approximately 4 weeks after completion of 8-week treatment, 250 mcg s.c. three times per week): 208 and 373 and 77 and 659 and 199 and 161 and 11 and 33 and 136 and 200
- Absolute CD4^+ T-Lymphocyte Counts, Week 2 CD4 ([1]; individual patients, week 2, 250 mcg s.c. three times per week for eight weeks, concurrent ritonavir or indinavir regimen): 229 and 304 and 227 and 979 and 77 and 25 and 26 and 15 and 157
- Absolute CD4^+ T-Lymphocyte Counts, Week 4 CD4 ([1]; individual patients, week 4, 250 mcg s.c. three times per week for eight weeks, concurrent ritonavir or indinavir regimen): 356 and 477 and 31 and 725 and 91 and 219 and 12 and 61 and 26 and 182
- Absolute CD4^+ T-Lymphocyte Counts, Week 8 CD4 ([1]; individual patients, week 8, 250 mcg s.c. three times per week for eight weeks, concurrent ritonavir or indinavir regimen): 238 and 750 and 76 and 1014 and 84 and 162 and 21 and 29 and 18 and 176
- Absolute CD4^+ T-Lymphocyte Counts, Post-Study CD4, Median ([1]; median of GM-CSF arm, approximately 4 weeks post-treatment): 180
- Absolute CD4^+ T-Lymphocyte Counts, Baseline CD4, Median ([1]; median of GM-CSF arm, baseline (pre-treatment)): 114
- Absolute CD4^+ T-Lymphocyte Counts, Week 2 CD4, Median ([1]; median of GM-CSF arm, week 2, 250 mcg s.c. three times per week): 157
- Absolute CD4^+ T-Lymphocyte Counts, Week 4 CD4, Median ([1]; median of GM-CSF arm, week 4, 250 mcg s.c. three times per week): 137
- Absolute CD4^+ T-Lymphocyte Counts, Week 8 CD4, Median ([1]; median of GM-CSF arm, week 8, 250 mcg s.c. three times per week): 123
- MAXIMUM CHANGE > 30% THRU WEEK 8, n/N ([1]; patients with CD4^+ change of 30% or more over baseline / patients counted, thru week 8): 6/10
- MAXIMUM CHANGE > 30% THRU WEEK 12, n/N ([1]; patients with CD4^+ change of 30% or more over baseline / patients counted, thru week 12): 8/10
- MAXIMUM CHANGE > 30% THRU WEEK 12, (%) of patients ([1]; share of patients with CD4^+ change of 30% or more over baseline, thru week 12): (80%)
